Source: the NIST ThermoML archive (doi:10.1021/acs.jced.5b00537)

Test: xn = mol fraction of the nth substance listed
Settings: 100 kPa, Liquid; for viscosity: Cone and plate viscometry; for mass density: Vibrating tube method

CCC(C)(C)O [2-methylbutan-2-ol] + CC(C)CO
Settings	mass density [kg/m3]	viscosity [mPa·s]
293.15 K, x1 = 0.101	803.58	4.697
293.15 K, x1 = 0.2	805.09	5.166
293.15 K, x1 = 0.301	806.61	5.487
293.15 K, x1 = 0.4	807.99	5.819
293.15 K, x1 = 0.5	809.31	6.094
293.15 K, x1 = 0.599	810.29	6.075
293.15 K, x1 = 0.7	810.83	5.951
293.15 K, x1 = 0.8	810.82	5.518
293.15 K, x1 = 0.9	810.12	5.081
293.15 K, x1 = 1	808.77	4.596
303.15 K, x1 = 0.101	795.96	3.244
303.15 K, x1 = 0.2	797.22	3.387
303.15 K, x1 = 0.301	798.63	3.616
303.15 K, x1 = 0.4	799.87	3.726
303.15 K, x1 = 0.5	800.87	3.775
303.15 K, x1 = 0.599	801.55	3.715
303.15 K, x1 = 0.7	801.84	3.597
303.15 K, x1 = 0.8	801.61	3.386
303.15 K, x1 = 0.9	800.89	3.187
303.15 K, x1 = 1	799.74	2.983
313.15 K, x1 = 0.101	788	2.392
313.15 K, x1 = 0.2	789.04	2.445
313.15 K, x1 = 0.301	790.24	2.526
313.15 K, x1 = 0.4	791.21	2.552
313.15 K, x1 = 0.5	791.89	2.539
313.15 K, x1 = 0.599	792.32	2.46
313.15 K, x1 = 0.7	792.36	2.365
313.15 K, x1 = 0.8	792.06	2.287
313.15 K, x1 = 0.9	791.35	2.204
313.15 K, x1 = 1	790.35	2.078
323.15 K, x1 = 0.101	779.8	1.749
323.15 K, x1 = 0.2	780.62	1.776
323.15 K, x1 = 0.301	781.62	1.8
323.15 K, x1 = 0.4	782.29	1.792
323.15 K, x1 = 0.5	782.77	1.756
323.15 K, x1 = 0.599	782.89	1.721
323.15 K, x1 = 0.7	782.77	1.664
323.15 K, x1 = 0.8	782.3	1.606
323.15 K, x1 = 0.9	781.58	1.549
323.15 K, x1 = 1	780.66	1.494
333.15 K, x1 = 0.101	771.08	1.31
333.15 K, x1 = 0.2	771.75	1.315
333.15 K, x1 = 0.301	772.36	1.329
333.15 K, x1 = 0.4	772.81	1.316
333.15 K, x1 = 0.5	772.96	1.277
333.15 K, x1 = 0.599	772.93	1.243
333.15 K, x1 = 0.7	772.58	1.206
333.15 K, x1 = 0.8	772.09	1.164
333.15 K, x1 = 0.9	771.38	1.128
333.15 K, x1 = 1	770.4	1.093
343.15 K, x1 = 0.101	762.05	–
343.15 K, x1 = 0.2	762.45	–
343.15 K, x1 = 0.301	762.79	–
343.15 K, x1 = 0.4	762.98	–
343.15 K, x1 = 0.5	762.91	–
343.15 K, x1 = 0.599	762.66	–
343.15 K, x1 = 0.7	762.18	–
343.15 K, x1 = 0.8	761.63	–
343.15 K, x1 = 0.9	760.84	–
343.15 K, x1 = 1	759.8	–
353.15 K, x1 = 1	749.13	–
363.15 K, x1 = 1	738.77	–
